Data as given in patent US8937038B2, “Composition containing peptide ligand that bonds with CXCR2 for treating infective and inflammatory diseases” (priority 2010, dated 2015).

Experiments:
[1] = tested on: mice into which LPS was intraperitoneally injected; assay: Survival in LPS-induced sepsis model; assay type: in vivo, mouse; conditions: 60 mg/kg LPS intraperitoneally; FIG. 4
Procedure: Male WT ICR mice were used to evaluate a therapeutic effect of Ac-PGP. IFN-γ-deficient mice (kindly provided by Y. K. Kim at the Pohang University of Science and Technology, Pohang, Republic of Korea) were used for mechanism study. All Examples in which animals were used were performed according to the instructions with permission of the Institutional Review Board (IRB) for the care and management of laboratory animals at Dong-A University. In the case of the CLP, mice were anesthetized with pentothal sodium (50 mg/kg, intraperitoneally injected), and abdomen of each mouse was cut along a central cutting line to expose an appendix. Then, an ileocecal valve of the appendix was tied up, both surfaces of the ileocecal valve were punctured twice with a 22-gauge needle (or punctured once to measure a production amount of cytokines), and the abdomen was sutured. Sham CLP mice were treated in the same manner as described above, except that CLP of the appendix was not performed. A survival rate of the mice was monitored every day for 10 days. In the case of the LPS or E. coli model, E. coli and LPS were intraperitoneally injected at concentrations of 1×10^9 cells/mouse and 60 mg/kg, respectively. A survival rate of the mice was monitored once a day for 10 days.
In another mouse model of sepsis, a therapeutic effect of Ac-PGP was also evaluated.

[2] = tested on: bacteria in peritoneal fluids of CLP mice; assay: In vivo disinfection activity: bacterial colonies in peritoneal fluid after CLP; set-up: species or system mouse; reference not given here; conditions: 24 hours after the CLP; FIG. 10
Procedure: A peritoneal lavage fluid was collected 24 hours after CLP, and incubated at 37° C. overnight in a blood agar base plate (trypticase soy agar Deeps, Becton Dickinson). The number of colony forming units (CFUs) was counted according to a method disclosed in Yan J J et al. 2004 Nat. Med. 10:161-167.
A death rate by CLP is correlated with the number of bacterial colonies in a peritoneal fluid. Therefore, an effect of the Ac-PGP on removal of bacteria in a peritoneal fluid was examined. […] In vitro disinfection activity of the Ac-PGP was examined using neutrophils derived from a mouse. The mouse neutrophils were kept for an hour to phagocytize E. coli, and then stimulated with various concentrations of Ac-PGP (0.1 to 100 nM) for 20 minutes. […] A reactive oxygen species such as hydrogen peroxide was known as an important molecule participating in the disinfection activity. Therefore, an effect of Ac-PGP on production of hydrogen peroxide in the mouse neutrophils was examined. […] To examine a role of CXCR2 in production of hydrogen peroxide by the Ac-PGP, the mouse neutrophils were pretreated with a CXCR2 antagonist (SB225002) before they were treated with the Ac-PGP.

mouse neutrophils = assay: H2O2 production in mouse neutrophils; assay type: cell-based; conditions: various concentrations, 10 minutes, cytochalasin B 5 μM; FIG. 12
Procedure: Mouse neutrophils were separated from peripheral blood using a Histopaque-1077 solution (Sigma) (Bae Y S et al. 2001 Blood. 97: 2854-2862). The neutrophils separated from normal mice were stimulated with various concentrations of Ac-PGP for 10 minutes in the presence of cytochalasin B (5 μM). To identify the role of mCXCR2, the neutrophils were pre-incubated in various concentrations of SB225002 or a vehicle (DMSO) for 30 minutes in a stationary environment, and Ac-PGP (20 μM) was added, and incubated for 10 minutes. H2O2 in a supernatant was measured using a H2O2 measurement kit (Molecular probe).
A death rate by CLP is correlated with the number of bacterial colonies in a peritoneal fluid. Therefore, an effect of the Ac-PGP on removal of bacteria in a peritoneal fluid was examined. […] In vitro disinfection activity of the Ac-PGP was examined using neutrophils derived from a mouse. The mouse neutrophils were kept for an hour to phagocytize E. coli, and then stimulated with various concentrations of Ac-PGP (0.1 to 100 nM) for 20 minutes. […] A reactive oxygen species such as hydrogen peroxide was known as an important molecule participating in the disinfection activity. Therefore, an effect of Ac-PGP on production of hydrogen peroxide in the mouse neutrophils was examined. […]

caspase-3 = assay: Caspase-3 activation in splenocytes of CLP mice (immunohistochemistry); assay type: in vivo, mouse; conditions: FIG. 23
Procedure: First, a tissue embedded in paraffin was deparaffinized using a typical histological protocol, and performed digoxigenin-dUTP nick end labeling (TUNEL) analysis. Sections were permeated into the Triton X-100 at 4° C. for 2 minutes, and the sections were flooded in terminal deoxynucleotidyl transferase (TdT) and a TUNEL reagent at 37° C. for 60 minutes. A percentage of apoptotic cells (TUNEL-positive cells) was determined by counting 500 splenocytes under an optical microscope. Also, the tissue embedded in paraffin was deparaffinized using a typical histological protocol, and immunohistochemical analysis was performed on the microtomed sections of caspase-3 (Wang J. et al. 2001 Proc. Natl. Acad. Sci. USA 98:4038-43).
The apoptosis of immune cells is associated with the mortality on sepsis. Here, the CLP was proven to remarkably increase apoptosis of splenocytes (FIG. 22). […] Apoptosis of lymphocytes was induced by activation of some major caspases including caspase-3. Therefore, not only the effect of Ac-PGP on activation of caspase-3 but also the effect of CLP activation by caspase-3 were examined (FIG. 23).

human neutrophils = assay: Disinfection activity of human neutrophils against opsonized E. coli; assay type: cell-based; conditions: FIG. 27
From the text: All kinds of protocols used in human beings were approved by the Institutional Review Board (IRB) at Dong-A University Hospital, and prior consents were obtained from all blood donors. Peripheral blood was collected from healthy donors, and human peripheral monocytes were separated using a Histopaque-1077 gradient. Neutrophils were separated through methods such as dextran precipitation of red blood cell, hypotonic lysis, and usage of lymphocyte isolation medium gradient, as known in the related art (Bae, Y. S. et al. Blood 97, 2854-2862(2001)). The separated human leukocytes were used immediately.
The disinfection activities of the neutrophils were measured according to a method disclosed by Yan et al. (Yan J J et al. 2004 Nat. Med. 10:161-167). The neutrophils were stationarily incubated at 37° C. for an hour on a 13 mm plastic cover slip in a 60 mm plastic culture dish. The non-attached cells were removed by PBS. The attached neutrophils were stationarily incubated for an hour with 10^6 opsonized E. coli cells. The non-phagocytized E. coli cells were washed, and the number of bacteria surviving in the neutrophils was determined before and after the E. coli cells were treated with various concentrations of Ac-PGP or vehicle for an hour. A percentage of the apoptosized bacteria was calculated as follows. 100×(1−CFU Number after stimulus with Ac-PGP/CFU Number before stimulus with Ac-PGP)
Since Ac-PGP strongly promoted the disinfection activity of the mouse neutrophils, a bacteriocidal effect of the Ac-PGP on human neutrophils was examined.

acetylated-Pro-Gly-Pro [Ac-PGP]
mortality [1]: decreased mortality
number of bacterial colonies in the peritoneal fluid [2]: 82.1%
production of hydrogen peroxide (mouse neutrophils): strongly increased production of hydrogen peroxide in a concentration-dependent manner
activation of caspase-3 (caspase-3): remarkably suppressed
killing of opsonified E. coli (human neutrophils; 20 nM): almost completely killed opsonified E. coli
disinfection activity (human neutrophils; 100 nM): remarkably improved the disinfection activity
bacterial killing by the human neutrophils (human neutrophils; various concentrations): dose-dependent effect on bacterial killing
